How the values were obtained:
Assay type in all cases: cell-based, human
HMEC-1 cells = assay: Heme-induced complement (iC3b, C5b-9) deposition on HMEC-1 cells, flow cytometry; details: for Q2 % Parent iC3b+ / Q2 % Parent C5b-9+: HMEC-1, 20% normal human serum, 1 uM inhibitor, heme 400 μM, 20-30 min 37° C.; for Q2 % Parent iC3b+: Table 4, FIG. 4A; for Q2 % Parent C5b-9+: Table 4, FIG. 4B; for effect on heme-induced C3 deposition on endothelial cells / effect on heme-induced C5b-9 (MAC, TCC) deposition on endothelial cells: HMEC-1, heme and NHS; for effect on heme-induced C3 deposition on endothelial cells: FIG. 4A; for effect on heme-induced C5b-9 (MAC, TCC) deposition on endothelial cells: FIG. 4B
Description: The endothelial cell line HMEC-1 was purchased from ATCC (CRL 3243) and expanded and banked at AcCellerate (Cat. CBA02, lot 92-190318FG01). This is a dermal microvascular endothelial cell line. Cells were used in experiments at passage <5.
All centrifugation steps were performed for 5-7 min at 200-300 g at room temperature (RT). HMEC-1 cells were seeded into 6 well plates at 1.5×10^5 cells per well in medium (Endothelial cell growth medium MV2, Promocell, cat. 22022) and allowed to reach confluency (72 hrs). Normal human serum (Complement Technologies, cat. NHS) was spiked with 1 uM inhibitor, diluted to 20% using Live cell imaging solution (LCIS) (Invitrogen, cat A1429DJ) containing 5-10 mM MgEGTA and added to HMEC-1 cultures in place of the medium. Heme was added to 400 μM, mixed and incubated for 20-30 min at 37° C. Cells were rinsed twice with 2 mLs PBS (Corning, cat. 21-031-CV) and detached with PBS containing 10 mM EDTA (Corning, cat. 46-034-CI). Cells were centrifuged, pellets resuspended in 400 μL sheath fluid (BD Biosciences, cat. 342003) and transferred to V-bottom 96 well plates in duplicate. After centrifugation, pellets were resuspended in 50 μL per well sheath fluid containing either iC3b or C5b-9 antibody diluted to 4 μg/mL. Following several washes, the cells were incubated with 50 μL of goat anti mouse IgG (H+L) AF 488 diluted to 4 μg/mL in sheath fluid for 30 min at 4° C. Following several washes, cells were acquired on the LSR Fortessa for flow cytometry analysis.

SS-RBCs [1] = assay: Heme-induced complement (iC3b, C5b-9) deposition on SS-RBCs, flow cytometry; details: for Q2 % Parent iC3b+ / Q2 % Parent C5b-9+: 20% autologous serum, heme 400 μM, 20-30 min 37° C.; for Q2 % Parent iC3b+: Table 3, FIG. 2A; for Q2 % Parent C5b-9+: Table 3, FIG. 2B; for effect on heme-induced C3 deposition (opsonization) on SS-RBCs / effect on heme-induced C5b-9 (MAC) deposition on SS-RBCs: heme and autologous serum; for effect on heme-induced C3 deposition (opsonization) on SS-RBCs: FIG. 2A; for effect on heme-induced C5b-9 (MAC) deposition on SS-RBCs: FIG. 2B
Source text: (§1) RBCs and serum from SCD patients homozygous for the mutation in the hemoglobin gene (SS) were obtained from BioIVT (cat HUMANRBCALSUZN and HMRBC-SCA respectively) and from Sanguine Biosciences (Study #24348). Gelatin Veronal Buffer (GVB) was obtained from Boston Bioproducts (cat. IBB-300X). Mg-EGTA (cat. B106), C8 depleted normal human serum (cat. A325) and normal human serum (cat. NHS) were obtained from Complement Technology. PBS was obtained from Corning, cat. 21-031-CV. Porcine heme (Sigma, cat. 51280) was used at various concentrations (50-800 uM) to amplify complement activation and induce deposition on human cells.
(§2) All centrifugations were performed at 440×g for 5 min at 4° C. and supernatants aspirated with multi-channel pipets to avoid disturbing the loose RBC pellets.
Patient SS-RBCs were washed two or three times in PBS. To induce complement deposition, RBCs were resuspended in GVB, 5 mM Mg-EGTA (assay buffer) at 5×10^7 cells/mL and 30 μL added to sterile V-96 wells. Autologous serum was added to 20% final concentration. Complement inhibitors were diluted in assay buffer at 5× working stock of 3.125 μM and 10 μL added to wells containing cells. Porcine heme was added to 400 μM and the cells incubated for 20-30 minutes at 37° C., 5% CO2. Complement activation was stopped by the addition of 150 μL/well PBS containing 10 mM EDTA. Cells were centrifuged and washed once with 200 μL PBS and stained for iC3b and C5b-9 deposition below.
Flow cytometric Analysis of iC3b and C5b-9 Deposition on the Surface of SS-RBCs
(§3) Cells were resuspended in 50 μL per well iC3b (Quidel, cat. A209) or C5b-9 antibody (Quidel, cat. A239) diluted to 4 μg/mL in PBS and incubated for 20-30 min at 4° C. (in some cases, staining for flow cytometry was performed in sheath fluid). Cells were washed twice with 150-200 μL PBS, resuspended in 50 μL goat anti-mouse IgG (H+L)-AF488 (Invitrogen cat. A11029) diluted to 4 μg/mL in PBS and incubated for 20-30 min at 4° C. In some experiments, goat anti-mouse IgG2b AF488 was used at 4 μg/mL (Invitrogen, cat. A21141). Cells were washed twice with 150-200 μL PBS and acquired on the LSR Fortessa for flow cytometric analysis.

monocytes in whole blood = assay: Heme-induced tissue factor expression on monocytes in whole blood, flow cytometry; details: hirudin whole blood; for Q2 % Parent TF+: CD14 monocytes, inhibitor 1 μM, heme 100 μM, 4 hrs 37° C., Table 5
Description: Human whole blood was obtained internally from healthy donors according to Institutional Review Board protocol. Blood was drawn into custom hirudin blood draw tubes obtained from Haematologic Technologies (cat. SCAT-296-5/5, 500 ATU/mL). This anti-coagulant allows simultaneous activation of complement and coagulation (through but not beyond thrombin). Blood was aliquoted into facs tubes (0.2 mL per tube) and inhibitors added to 1 μM. Heme was added to 100 μM and the samples were incubated for 4 hrs at 37° C., 5% CO2, mixing approximately every 30 minutes. To stain for flow cytometry, 10 μL of TruStain FcX (Biolegend, cat. 422302) was added for a 5-10 minute incubation at RT (to block IgG receptors). Mouse anti-human CD14 PerCP Cy5.5 (BD Biosciences, cat. 550787) (5 μL per sample) and mouse anti-human tissue factor-PE (BD Biosciences, cat. 550312) were added (20 μL per sample) and the samples were mixed and incubated for 30 minutes at RT. To lyse RBCs, 3 mLs of 1× lysis buffer (BD Biosciences Cat. 555899) was added to each tube followed by vortexing and incubation for 20 min at RT. The samples were centrifuges at 340 g for 5 minutes and washed twice with PBS. Cell pellets were resuspended in 0.5 mL PBS and acquired on the LSR Fortessa for flow cytometric analysis. Monocytes were gated via CD14 triggering and data was expressed as percentage of CD14 monocytes positive for tissue factor (TF).

SS-RBCs [2] = assay: Heme dose-dependent induction of iC3b deposition on SS-RBCs
Source text: as §1, §2
Patient SS-RBCs were washed three times in PBS, resuspended in GVB, 5 mM Mg-EGTA and re-distributed to sterile V-bottom 96 well plates at a concentration of 2×10^6 cells/well. […] Heme was used at 0, 100, 200, 400, and 800 μM. Following incubation for 20-30 minutes at 37° C. 5% CO2, PBS containing 10% EDTA (Corning, cat. 46-030-CI) was added to stop complement activation. RBCs were washed and stained with antibody to iC3b as detailed below.
as §3

whole blood = assay: IL-8 production in whole blood model of thromboinflammation; details: heme, FIG. 6

CC(=O)c1nn(CC(=O)N2[C@H](C(=O)Nc3nc(Br)ccc3C)C[C@@]3(C)C[C@@H]23)c2ccc(-c3cnc(C)nc3)cc12 [ALXN2050, vermincopan]
Q2 % Parent iC3b+ (HMEC-1 cells): 3.4%
Q2 % Parent C5b-9+ (HMEC-1 cells): 3%
effect on heme-induced C3 deposition on endothelial cells (HMEC-1 cells): block
effect on heme-induced C5b-9 (MAC, TCC) deposition on endothelial cells (HMEC-1 cells): block
Q2 % Parent iC3b+ (SS-RBCs [1]): 3.5%
Q2 % Parent C5b-9+ (SS-RBCs [1]): 3.4%
Q2 % Parent TF+ (monocytes in whole blood): 1.4%

C=CC1=C(C)c2cc3[n-]c(cc4[n-]c(cc5nc(cc1n2)C(C)=C5C=C)c(C)c4CCC(=O)O)c(CCC(=O)O)c3C.[Fe+2] [heme]
Q2 % Parent iC3b+ (SS-RBCs [2]; 100 uM heme, 20% SS-Serum): 18.3%
Q2 % Parent iC3b+ (SS-RBCs [2]; 100 uM heme, No Serum): 2%
Q2 % Parent iC3b+ (SS-RBCs [2]; 200 uM Heme, 20% SS-Serum): 22.8%
Q2 % Parent iC3b+ (SS-RBCs [2]; 200 uM Heme, No Serum): 1.3%
Q2 % Parent iC3b+ (SS-RBCs [2]; 400 uM heme, 20% SS-Serum): 49.6%
Q2 % Parent iC3b+ (SS-RBCs [2]; 400 uM heme, No Serum): 1.1%
Q2 % Parent iC3b+ (SS-RBCs [2]; 800 uM heme, 20% SS-Serum): 69.7%
Q2 % Parent iC3b+ (SS-RBCs [2]; 800 uM heme, No Serum): 0.8%
induction of C3 deposition (opsonization) on SS-RBCs (SS-RBCs [2]; heme 100-800 μM, 20% autologous serum, FIG. 3): potent and dose dependent opsonization

B1: Crizanlizumab: antibody manufactured using the published sequence of Crizanlizumab, an anti-P-selectin antibody FDA approved for prevention of VOC in SCD (antibody, chains of the INN, looked up, V domains shown)
VH: QVQLVQSGAEVKKPGASVKVSCKVSGYTFTSYDINWVRQAPGKGLEWMGWIYPGDGSIKYNEKFKGRVTMTVDKSTDTAYMELSSLRSEDTAVYYCARRGEYGNYEGAMDYWGQGTLVTVSS
VL: DIQMTQSPSSLSASVGDRVTITCKASQSVDYDGHSYMNWYQQKPGKAPKLLIYAASNLESGVPSRFSGSGSGTDFTLTISSLQPEDFATYYCQQSDENPLTFGGGTKVEIK
Q2 % Parent iC3b+ (HMEC-1 cells): 82.9%
Q2 % Parent C5b-9+ (HMEC-1 cells): 53.7%
effect on heme-induced C3 deposition on endothelial cells (HMEC-1 cells): no effect
effect on heme-induced C5b-9 (MAC, TCC) deposition on endothelial cells (HMEC-1 cells): no effect
Q2 % Parent iC3b+ (SS-RBCs [1]): 38.6%
Q2 % Parent C5b-9+ (SS-RBCs [1]): 7.3%
effect on heme-induced C3 deposition (opsonization) on SS-RBCs (SS-RBCs [1]): little to no effect
effect on heme-induced C3 deposition (opsonization) on SS-RBCs (SS-RBCs [1]; listed as anti-P-selectin antibody): no effect
effect on heme-induced C5b-9 (MAC) deposition on SS-RBCs (SS-RBCs [1]): little to no effect
effect on heme-induced C5b-9 (MAC) deposition on SS-RBCs (SS-RBCs [1]; listed as anti-P selectin antibody): no effect
effect on IL-8 production (whole blood): no effect
Q2 % Parent TF+ (monocytes in whole blood): 23.2%
effect on heme-induced TF upregulation by monocytes (monocytes in whole blood; heme, FIG. 5A, FIG. 5B): no effect
